Literature values in US7517878B2, “Heteroarylaminopyrazole derivatives useful for the treatment of diabetes” (Bayer Pharamceuticals Corporation, priority 2004, dated 2009).

System: INS-1 cells
Conditions: INS-1 cells maintained in the presence of beta-mercaptoethanol; Hohmeier, et al., Diabetes 49:424, 2002; read-out: EC50 of insulin secretion in response to glucose

- EC50: 6 mM
SMILES: O=C[C@H](O)[C@@H](O)[C@H](O)[C@H](O)CO [glucose]
